Columns and labels:
[1] = target: T1, amylase derived from human pancreatic juice (human P type α-amylase) (Homo sapiens, UniProt P04746); assay: Km value, P type α-amylase; format: biochemical; conditions: pH 7.0, 37° C., Lineweaver-Burk
T1 sequence (P04746 16-511): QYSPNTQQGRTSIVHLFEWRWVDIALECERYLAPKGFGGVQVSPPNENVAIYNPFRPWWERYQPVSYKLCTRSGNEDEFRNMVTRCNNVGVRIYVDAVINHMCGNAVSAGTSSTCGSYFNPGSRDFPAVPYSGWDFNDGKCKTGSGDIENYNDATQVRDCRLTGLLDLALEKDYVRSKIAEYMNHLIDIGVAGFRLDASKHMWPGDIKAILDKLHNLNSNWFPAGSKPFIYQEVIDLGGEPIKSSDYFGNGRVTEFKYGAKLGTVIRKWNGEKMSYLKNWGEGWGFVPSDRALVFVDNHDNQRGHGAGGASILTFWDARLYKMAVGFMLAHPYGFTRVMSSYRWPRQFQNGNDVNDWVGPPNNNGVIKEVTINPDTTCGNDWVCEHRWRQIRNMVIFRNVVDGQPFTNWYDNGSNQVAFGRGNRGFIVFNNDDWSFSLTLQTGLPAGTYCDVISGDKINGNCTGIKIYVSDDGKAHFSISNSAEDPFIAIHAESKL
Procedure: (§1) Km values, hydrolysis rate, water solubility and the patterns of action in the hydrolysis of the present substrates 2-chloro-4-nitrophenyl 5^5 -eno-4^5 -O-mesyl-β-D-maltopentaoside (EMG5CNP) and 2-chloro-4-nitrophenyl 6^5 -azido-6^5 -deoxy- β-D-maltopentaoside (ADG5CNP) obtained in Example were examined in accordance with the following methods.
(§2) Substrate solutions were prepared by dissolving in a 50 mM phosphate buffer (pH=7.0) containing 40 mM NaCl and 2 mM MgCl2 a substrate to 0.16, 0.32, 0.48, 0.64, 0.80 and 0.96 mM, respectively.
(§3) The Km value of each substrate solution was obtained by measuring the hydrolysis rate of the substrate in accordance with the same procedure as in the measurement of hydrolysis rate described below and roughly calculating the Lineweaver-Burk's reciprocal plot (see "Tanpaku-Kohso no Jikken-hou", ed. Takeichi Horio & Jinpei Yamashita, Nanko-do, 1981).
(§4) Each substrate was dissolved in a 50 mM phosphate buffer (pH=7.0) containing 40 mM NaCl and 2 mM MgCl2 to make three substrate solutions in a concentration of 0.8-1.6 times and three substrate solutions in a concentration of 1.6-3.2 times per the roughly calculated Km value in the aforementioned paragraph (ii).
(§5) The Km value was calculated in accordance with the same procedure as in the aforementioned paragraph (ii).
(§6) P: amylase derived from human pancreatic juice, […]

[2] = target: T2, amylase derived from human saliva (human S type α-amylase) (Homo sapiens, UniProt P0DUB6); assay: Km value, S type α-amylase; format: biochemical; conditions: pH 7.0, 37° C., Lineweaver-Burk
T2 sequence (P0DUB6 16-511): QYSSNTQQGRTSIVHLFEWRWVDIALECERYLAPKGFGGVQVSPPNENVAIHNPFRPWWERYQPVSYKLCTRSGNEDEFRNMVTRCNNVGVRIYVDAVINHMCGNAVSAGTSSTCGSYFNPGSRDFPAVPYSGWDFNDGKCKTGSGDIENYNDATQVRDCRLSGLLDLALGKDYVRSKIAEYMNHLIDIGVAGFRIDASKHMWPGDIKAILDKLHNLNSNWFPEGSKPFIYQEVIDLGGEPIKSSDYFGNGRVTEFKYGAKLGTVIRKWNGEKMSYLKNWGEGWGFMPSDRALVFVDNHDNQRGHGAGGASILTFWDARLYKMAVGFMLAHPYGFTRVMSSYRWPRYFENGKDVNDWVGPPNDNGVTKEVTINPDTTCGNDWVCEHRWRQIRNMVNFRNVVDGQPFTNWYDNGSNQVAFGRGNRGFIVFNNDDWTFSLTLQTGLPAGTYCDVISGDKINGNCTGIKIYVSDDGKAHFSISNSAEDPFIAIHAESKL
Procedure: as §1, §2, §3, §4, §5
(§7) S: amylase derived from human saliva.

[3] = target: T2, amylase derived from human saliva (human S type α-amylase); assay: Patterns of action (hydrolyzed product by HPLC), S type α-amylase; format: biochemical; conditions: 0.5 mM substrate, 37° C., 20 minutes
Procedure: (§8) Commercially available human P type and S type α-amylase solutions having a concentration of ca. 500 IU/l were prepared in the same manner as in the step (3) of Example 5.
(§9) To 1.0 ml of the substrate solution was added 100 μl of the α-amylase solution prepared in the paragraph (iii) of the aforementioned hydrolysis rate, and the mixture, after stirred sufficiently, was subjected to reaction at 37° C. for 20 minutes. The hydrolyzed product was determined quantitatively by the high performance liquid chromatography of the reaction mixture.
as §7

[4] = target: T1, amylase derived from human pancreatic juice (human P type α-amylase); assay: Patterns of action (hydrolyzed product by HPLC), P type α-amylase; format: biochemical; conditions: 0.5 mM substrate, 37° C., 20 minutes
Procedure: as §8, §9, §6

[5] = target: T2, amylase derived from human saliva (human S type α-amylase); assay: Hydrolysis rate, S type α-amylase; format: biochemical; conditions: relative to hydrolysis rate of 3 mM G5CNP defined as 10, substrate 7-9 times the Km
Procedure: (§10) The coupled enzyme solution was prepared in the same manner as in the step (2) of Example 5.
as §8
(§11) With 250 μl of the α-amylase solution prepared in (iii) was mixed 1.0 ml of the coupled enzyme. The mixture was heated at 37° C. for 1 minute, and 2.0 ml of the substrate solution was added with stirring to the mixture. The variation of absorbance at 400 nm was measured for 2 minutes after heating the mixture at 37° C. for 2 minutes. The hydrolysis rate of each substrate, namely the variable absorbance per unit time was expressed with the relative values to the hydrolysis rate of 3 mM G5CNP (the reference substrate) which is defined as 10.
as §7

Solubility in water = format: physicochemical; conditions: 20 g of substrate added to 100 ml of water
Procedure: To 100 ml of water was added 20 g of a substrate, and the dissolution state was observed.

[6] = target: T1, amylase derived from human pancreatic juice (human P type α-amylase); assay: Hydrolysis rate, P type α-amylase; format: biochemical; conditions: relative to hydrolysis rate of 3 mM G5CNP defined as 10, substrate 7-9 times the Km
Procedure: as §10, §8, §11, §6

[7] = system: human α-amylase (P:S=1:1); assay: α-Amylase hydrolysis (increase in absorbance at 400 nm with coupled enzymes); format: biochemical; conditions: for Increase in absorbance for 2 minutes (corrected by the 0 IU/l of α-amylase activity): substrate solution 3.00 mM, 400 nm, 37° C., pH 7.0; for hydrolysis by α-amylase (in words): as understood from Tables 1 and 2
Procedure: Coupled enzyme solution was prepared by dissolving a commercially available α-glucosidase derived from yeast and a commercially available β-glucosidase derived from almond in a 50 mM phosphate buffer (pH=7.0) containing 40 mM NaCl and 2 mM MgCl2 to a concentration of 117 units/ml and 13 units/ml, respectively. As the commercially available α- and β-glucosidases, those available from Toyobo Co., Ltd. were used.
Standard α-amylase solutions were prepared by dissolving a commercially available human α-amylase (P:S=1:1) in purified water to a concentration of 0, 148, 284, 401 and 525 IU/l, respectively. As the commercially available human α-amylase, Calibzyme.AMY manufactured by International Reagents Corp. was employed. As for the activity of α-amylase, an amount of the enzyme which decomposes 1μ mol of (a commercially available) 2-chloro-4-nitrophenyl β-D-maltopentaoside at 37° C. for one minute was defined as 1 international unit (IU).
The substrate solution (a) was prepared by dissolving 2-chloro-4-nitorphenyl 6^5 -azido-6^5 -deoxy-β-D-maltopentaoside (referred to hereinafter as the substrate of the present invention) obtained in Example 3 in a 50 mM phosphate buffer (pH=7.0) containing 40 mM NaCl and 2 mM MgCl2 to a concentration of 3.00 mM.
The substrate solution (b) was prepared by dissolving 2-chloro-4-nitrophenyl 6^3 -azido-6^3 -deoxy-β-D-maltotrioside (referred to hereinafter as the reference substrate) obtained in the step (1) in a 50 mM phosphate buffer (pH=7.0) containing 40 mM NaCl and 2 mM MgCl2 to a concentration of 3.00 mM.
A coupled enzyme solution was prepared in the same manner as in the step (2) of Example 5.
α-amylase solutions were prepared in the same manner as in the step (3) of Example 5 by dissolving a commercially available human α-amylase (P:S=1:1) in purified water to a concentration of 0, 250 and 500 IU/l, respectively.
The coupled enzyme solution in an amount of 1.0 ml was added with stirring to 250 μl of the α-amylase solution, and the mixture was heated at 37° C. for one minute. Each of the substrate solution in an amount of 2.0 ml was added with stirring to the mixture, and the mixture was heated at 37° C. for 2 minutes before measuring the variation of the absorbance at 400 nm for 2 minutes.
2-chloro-4-nitrophenyl 5^5 -eno-4^5 -O-mesyl-β-D-maltopentaoside (referred to hereinafter as substrate of the present invention) obtained in Example 1 was dissolved in a 50 mM phosphate buffer (pH=7.0) containing 40 mM NaCl and 2 mM MgCl2 to a concentration of 3.00 mM.
2-chloro-4-nitrophenyl 5^3 -eno-4^3 -O-mesyl-β-D-maltotrioside(referred to hereinafter as reference substrate) obtained in the previous step (1) was dissolved in a 50 mM phosphate buffer (pH=7.0) containing 40 mM NaCl an 2 mM MgCl2 to a concentration of 3.00 mM.
α-amylase solutions were prepared in the same manner as in the step (5) of Example 7.
The variations of absorbance were measured in the same manner as in the step (6) of Example 7.

SMILES	Km [1]	Km [2]	Patterns of action, hydrolyzed product G2CNP [3]	Patterns of action, hydrolyzed product G3CNP [3]	Patterns of action, hydrolyzed product G4CNP [3]	Patterns of action, hydrolyzed product GCNP [3]	Patterns of action, hydrolyzed product G2CNP [4]	Patterns of action, hydrolyzed product G3CNP [4]	Patterns of action, hydrolyzed product G4CNP [4]	Patterns of action, hydrolyzed product GCNP [4]	Hydrolysis rate [5]	Solubility in water (Solubility in water)	Hydrolysis rate [6]	Increase in absorbance for 2 minutes (corrected by the 0 IU/l of α-amylase activity) ([7]; Table 1, α-amylase activity 250 IU/l)	Increase in absorbance for 2 minutes (corrected by the 0 IU/l of α-amylase activity) ([7]; Table 1, α-amylase activity 500 IU/l)	hydrolysis by α-amylase (in words) [7]	Increase in absorbance for 2 minutes (corrected by the 0 IU/l of α-amylase activity) ([7]; Table 2, α-amylase activity 250 IU/l)	Increase in absorbance for 2 minutes (corrected by the 0 IU/l of α-amylase activity) ([7]; Table 2, α-amylase activity 500 IU/l)
O=[N+]([O-])c1ccc(O[C@@H]2O[C@H](CO)[C@@H](O[C@H]3O[C@H](CO)[C@@H](O[C@H]4O[C@H](CO)[C@@H](O[C@H]5O[C@H](CO)[C@@H](O[C@H]6O[C@H](CO)[C@@H](O)[C@H](O)[C@H]6O)[C@H](O)[C@H]5O)[C@H](O)[C@H]4O)[C@H](O)[C@H]3O)[C@H](O)[C@H]2O)c(Cl)c1 [Example G5CNP, 2-chloro-4-nitrophenylβ-D-maltopentaoside, reference compound]	290 µM	370 µM	83 mol %	11 mol %	4 mol %	2 mol %	81 mol %	8 mol %	8 mol %	3 mol %	10	Good	10					
[N-]=[N+]=NC[C@H]1O[C@H](O[C@H]2[C@H](O)[C@@H](O)[C@@H](O[C@H]3[C@H](O)[C@@H](O)[C@H](Oc4ccc([N+](=O)[O-])cc4Cl)O[C@@H]3CO)O[C@@H]2CO)[C@H](O)[C@@H](O)[C@@H]1O [Substrate solution (b) (Table 1), 2-chloro-4-nitrophenyl 6^3-azido-6^3-deoxy-β-D-maltotrioside, reference compound]														0.002	0.005	hardly hydrolyzed		
C=C1O[C@H](O[C@H]2[C@H](O)[C@@H](O)[C@@H](O[C@H]3[C@H](O)[C@@H](O)[C@H](Oc4ccc([N+](=O)[O-])cc4Cl)O[C@@H]3CO)O[C@@H]2CO)[C@H](O)[C@@H](O)[C@@H]1OS(C)(=O)=O [Substrate solution (b) (Table 2), 2-chloro-4-nitrophenyl 5^3-eno-4^3 -O-mesyl-β-D-maltotrioside, reference compound]																hardly hydrolyzed	0.001	0.002

Reference: patent US5302514A, “Maltooligoside derivative, reagent for determining α-amylase activity containing the same as effective ingredient and a process for determining the α-amylase activity using same” (Kikkoman Corporation, priority 1991, dated 1994)
